Experimental findings from patent publication US9944654B2, “Nargenicin compounds and uses thereof as antibacterial agents” (priority 2014, dated 2018) are described below.

Each structure is given as a SMILES string. ≈ marks a conversion by molar mass, not a printed value. Like-named read-outs stand apart in the source and are kept apart here. Bounds are passed on as bounds.

Assay [1] relates to Streptococcus pneumoniae MB6357 (CL 2883). Nature of the assay: Nargenicin antibacterial assay (MIC), S. pneumoniae. Particulars: Streptococcus pneumoniae, read-out: S. pneumoniae MB2883 (MIC), Isosensitest broth; * = some reduction of growth versus control at […]. It is filed as cell-based.
Assay [2] concerns Escherichia coli MB5747 (LS 883, tolC). Kind of assay: microbe, parasite or virus in culture. It is filed as cell-based. The conditions noted are these: Escherichia coli, read-out: E. coli LS883 tolC (MIC), MHII broth; * = some reduction of growth versus control at […].
In assay [3] the test system is Pseudomonas aeruginosa MB5890 (CB1101, efflux-deleted). Nature of the assay: microbe, parasite or virus in culture. It is filed as cell-based. The conditions noted are these: Pseudomonas aeruginosa, read-out: P. aeruginosa MB5890 efflux-del (MIC), MHII broth; * = some reduction of growth versus control at […].
The target in assay [4] is T1, S. aureus DnaE (DNA polymerase III α-subunit homolog from Staphylococcus aureus) (Staphylococcus aureus, UniProt Q5HF71).
T1 construct: SaDnaE (S. aureus DnaE residues 1-1065); 6xHis (N); made in house; host or cells: E. coli BL21-AI
T1 sequence (Q5HF71 1-1065): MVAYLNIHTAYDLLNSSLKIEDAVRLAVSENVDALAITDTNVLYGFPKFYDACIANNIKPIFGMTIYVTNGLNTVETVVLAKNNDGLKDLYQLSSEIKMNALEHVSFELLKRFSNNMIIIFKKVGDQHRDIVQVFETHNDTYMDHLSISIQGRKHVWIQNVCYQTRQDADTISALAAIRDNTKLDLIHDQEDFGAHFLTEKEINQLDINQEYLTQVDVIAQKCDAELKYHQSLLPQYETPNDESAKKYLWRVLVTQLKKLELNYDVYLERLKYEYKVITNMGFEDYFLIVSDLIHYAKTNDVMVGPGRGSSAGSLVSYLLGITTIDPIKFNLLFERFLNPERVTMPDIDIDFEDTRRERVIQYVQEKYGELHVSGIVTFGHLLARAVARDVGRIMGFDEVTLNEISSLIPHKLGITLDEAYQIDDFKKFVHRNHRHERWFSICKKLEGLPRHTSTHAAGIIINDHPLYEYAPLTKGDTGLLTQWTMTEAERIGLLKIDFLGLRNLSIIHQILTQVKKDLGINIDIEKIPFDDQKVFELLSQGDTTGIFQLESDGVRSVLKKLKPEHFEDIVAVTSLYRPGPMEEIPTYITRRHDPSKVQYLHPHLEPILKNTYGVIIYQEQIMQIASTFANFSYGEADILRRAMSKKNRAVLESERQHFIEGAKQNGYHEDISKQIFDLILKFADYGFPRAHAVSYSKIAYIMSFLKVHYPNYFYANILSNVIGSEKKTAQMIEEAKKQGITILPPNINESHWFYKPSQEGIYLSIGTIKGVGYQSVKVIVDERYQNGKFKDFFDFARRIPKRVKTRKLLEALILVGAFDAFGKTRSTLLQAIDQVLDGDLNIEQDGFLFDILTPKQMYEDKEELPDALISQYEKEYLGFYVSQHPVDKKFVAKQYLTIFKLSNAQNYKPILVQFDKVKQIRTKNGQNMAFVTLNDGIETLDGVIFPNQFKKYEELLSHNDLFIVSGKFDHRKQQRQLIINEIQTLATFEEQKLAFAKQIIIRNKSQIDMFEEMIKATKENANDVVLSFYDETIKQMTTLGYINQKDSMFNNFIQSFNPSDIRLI
Nature of the assay: biochemical. Type of assay: biochemical. The gist of the method: (§1)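 His-tagged E. coli DnaE (residues 1-1160, 0.8 μg/ml) or S. aureus DnaE (residues 1-1065, 0.05 μg/ml) incubated 30 min at 30° C. with activated calf thymus DNA, 0.025 mM dATP/dGTP/dCTP and 0.011 mM 3H-dTTP in Tris pH 7.5/Mg acetate. TCA-precipitated labelled DNA counted.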

The subject of assay [5] is Staphylococcus aureus MB6266 (MRSA COL). Nature of the assay: Nargenicin antibacterial assay (MIC), S. aureus. The conditions noted are these: Staphylococcus aureus, MRSA, read-out: S. aureus COL (MIC), MHII broth + 50% human serum; * = some reduction of growth versus control at […]. It is filed as cell-based.
Assay [6] concerns the target T2, E. coli DnaE (DNA polymerase III α-subunit from Escherichia coli) (Escherichia coli, UniProt P10443).
T2 construct: EcDnaE (E. coli DnaE residues 1-1160); 6xHis (N); made in house; host or cells: E. coli BL21(DE3)
Nature of the assay: In vitro DnaE single enzyme assay (E. coli). Type of assay: biochemical. In short, it runs like this:
as §1

The mark [7] stands for this setting: read-out: E. coli DnaE IC50 (converted).
[8] abbreviates: read-out: S. aureus DnaE IC50 (converted).

T2 sequence (P10443 whole entry, the tested form may be a part): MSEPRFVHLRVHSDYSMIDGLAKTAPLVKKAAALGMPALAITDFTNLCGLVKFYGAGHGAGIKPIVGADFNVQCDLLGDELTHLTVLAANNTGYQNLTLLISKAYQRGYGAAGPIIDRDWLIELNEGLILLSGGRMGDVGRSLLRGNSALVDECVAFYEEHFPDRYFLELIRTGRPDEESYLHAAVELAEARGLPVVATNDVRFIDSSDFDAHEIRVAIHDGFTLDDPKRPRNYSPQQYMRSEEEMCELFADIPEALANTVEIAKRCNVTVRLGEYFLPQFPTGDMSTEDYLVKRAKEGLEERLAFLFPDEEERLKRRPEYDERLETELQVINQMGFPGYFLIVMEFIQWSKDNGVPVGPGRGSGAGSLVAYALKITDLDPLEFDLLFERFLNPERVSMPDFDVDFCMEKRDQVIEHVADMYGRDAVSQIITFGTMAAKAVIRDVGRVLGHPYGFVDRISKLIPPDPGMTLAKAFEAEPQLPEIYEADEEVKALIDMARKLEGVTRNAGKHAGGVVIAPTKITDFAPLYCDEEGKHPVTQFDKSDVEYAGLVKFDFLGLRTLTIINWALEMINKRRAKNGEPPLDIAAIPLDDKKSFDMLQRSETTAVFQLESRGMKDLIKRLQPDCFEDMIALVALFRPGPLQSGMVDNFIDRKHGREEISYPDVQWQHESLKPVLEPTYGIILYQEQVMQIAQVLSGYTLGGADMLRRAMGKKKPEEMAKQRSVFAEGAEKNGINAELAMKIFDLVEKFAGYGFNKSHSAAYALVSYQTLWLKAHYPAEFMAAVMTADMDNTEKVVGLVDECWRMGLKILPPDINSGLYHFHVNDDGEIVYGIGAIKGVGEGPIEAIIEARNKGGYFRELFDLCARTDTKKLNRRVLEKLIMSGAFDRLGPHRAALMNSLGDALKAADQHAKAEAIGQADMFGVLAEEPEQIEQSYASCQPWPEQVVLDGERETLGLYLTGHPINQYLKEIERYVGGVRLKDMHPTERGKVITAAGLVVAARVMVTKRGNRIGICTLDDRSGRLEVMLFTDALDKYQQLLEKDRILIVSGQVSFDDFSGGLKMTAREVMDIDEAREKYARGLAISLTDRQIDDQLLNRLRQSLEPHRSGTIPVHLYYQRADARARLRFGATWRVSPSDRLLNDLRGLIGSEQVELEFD

The term IC50 denotes the concentration that gives 50% inhibition. For the molecule `CO[C@H]1C[C@H]2C=C[C@H]3[C@H]4O[C@]2(/C(C)=C/[C@@H](C)[C@@H]([C@@H](C)OC(=O)N2CCOCC2)OC1=O)[C@@H]3[C@H](O)[C@@H](C)[C@H]4OC(=O)c1ccc[nH]1` [Example 20], the MIC was 32 µg/mL (≈ 50.9 µM) in assay [1], 8 µg/mL (≈ 12.7 µM) in assay [2], over 128 µg/mL in assay [3] and 8 µg/mL in assay [5]. In addition, the results for the IC50 in assay [4] (S. aureus DnaE IC50) and in assay [6] (setting [7]) were under 9.54 nM and over 159 µM, respectively.
For the molecule `CO[C@H]1C[C@H]2C=C[C@H]3[C@H]4O[C@]2(/C(C)=C/[C@@H](C)[C@@H]([C@@H](C)OC(=O)NC(C)(CO)CO)OC1=O)[C@@H]3[C@H](O)[C@@H](C)[C@H]4OC(=O)c1ccc[nH]1` [Example 21], the MIC was 128 µg/mL (≈ 198 µM) in assay [1], 8 µg/mL (≈ 12.4 µM) in assay [2], 128 µg/mL (≈ 198 µM) in assay [3] and 16 µg/mL in assay [5]. In addition, the half-inhibitory concentration (IC50) in assay [4] (S. aureus DnaE IC50) is under 9.28 nM; in assay [6] (setting [7]), over 155 µM.
With `CO[C@H]1C[C@H]2C=C[C@H]3[C@H]4O[C@]2(/C(C)=C/[C@@H](C)[C@@H]([C@@H](C)OC(=O)NNC(N)=O)OC1=O)[C@@H]3[C@H](O)[C@@H](C)[C@H]4OC(=O)c1ccc[nH]1` [Example 23], the MIC in assay [1] was over 128 µg/mL; in assay [2], 4 µg/mL (≈ 6.49 µM); in assay [3], 64 µg/mL (≈ 104 µM); in assay [5] it was 8 µg/mL. Moreover, the IC50 in assay [4] (S. aureus DnaE IC50) is under 9.73 nM; in assay [6] (setting [7]), 48.6 µM.
`COC1CC2C=CC3C4OC2(C(C)=CC(C)C(C(C)OC(=O)NCCN2CCN(C)CC2)OC1=O)C3C(O)C(C)C4OC(=O)c1ccc[nH]1` (stereo not drawn) [Example 24]: the MIC in assay [1] is over 128 µg/mL; in assay [2], 32 µg/mL (≈ 46.7 µM); in assay [3], over 128 µg/mL; in assay [5], 32 µg/mL. Besides, the IC50 was 8.76 nM in assay [4] (setting [8]) and over 146 µM in assay [6] (E. coli DnaE IC50).
For `COC1CC2C=CC3C4OC2(C(C)=CC(C)C(C(C)OC(=O)NCCCN2CCN(C)CC2)OC1=O)C3C(O)C(C)C4OC(=O)c1ccc[nH]1` (stereo not drawn) [Example 25], the MIC is over 128 µg/mL in assay [1], 32 µg/mL (≈ 45.8 µM) in assay [2], over 128 µg/mL in assay [3] and 32 µg/mL in assay [5]. Moreover, the concentration for half-maximal inhibition (IC50) in assay [4] (setting [8]) is 30 nM; in assay [6] (E. coli DnaE IC50), over 143 µM.
Turning to `COC(=O)O[C@H](C)[C@H]1OC(=O)[C@@H](OC)CC2C=C[C@H]3[C@H]4O[C@]2(/C(C)=C/[C@H]1C)[C@@H]3[C@H](O)[C@@H](C)[C@H]4OC(=O)c1ccc[nH]1` (stereo partly drawn) [Example 27], the MIC was 64 µg/mL (≈ 112 µM) in assay [1], 4 µg/mL (≈ 6.97 µM) in assay [2], over 128 µg/mL in assay [3] and 2 µg/mL in assay [5]. Moreover, the values for the IC50 in assay [4] (S. aureus DnaE IC50) and in assay [6] (setting [7]) were under 10.5 nM and 61 µM, respectively.
`CO[C@H]1C[C@H]2C=C[C@H]3[C@H]4O[C@]2(/C(C)=C/[C@@H](C)[C@@H]([C@@H](C)OC(=O)OCC(C)(N)CO)OC1=O)[C@@H]3[C@H](O)[C@@H](C)[C@H]4OC(=O)c1ccc[nH]1.O=C(O)C(F)(F)F` (stereo partly drawn) [Example 28]: the MIC worked out at 128 µg/mL in assay [1], 2 µg/mL in assay [2], 32 µg/mL in assay [3] and 2 µg/mL in assay [5]. Moreover, the half-inhibitory concentration (IC50) in assay [4] (S. aureus DnaE IC50) was about 6.57 nM; in assay [6] (setting [7]) it was over 131 µM.
Consider `CO[C@H]1C[C@H]2C=C[C@H]3[C@H]4O[C@]2(/C(C)=C/[C@@H](C)[C@@H]([C@@H](C)OC(=O)OCCO)OC1=O)[C@@H]3[C@H](O)[C@@H](C)[C@H]4OC(=O)c1ccc[nH]1` [Example 30], for which the MIC in assay [1] turned out to be 64 µg/mL (≈ 106 µM); in assay [2], 1 µg/mL (≈ 1.66 µM); in assay [3], 16 µg/mL (≈ 26.5 µM); in assay [5], 0.5 µg/mL. In addition, the IC50 in assay [4] (S. aureus DnaE IC50) was under 9.94 nM; in assay [6] (setting [7]), 116 µM.
For `COC1CC2C=CC3C4OC2(C(C)=CC(C)C(C(C)OC(=O)OCCN(CCO)CCO)OC1=O)C3C(O)C(C)C4OC(=O)c1ccc[nH]1` (stereo not drawn) [Example 32], the MIC in assay [1] was over 128 µg/mL; in assay [2] it was 2 µg/mL (≈ 2.9 µM); in assay [3], 64 µg/mL (≈ 92.6 µM); in assay [5], 2 µg/mL. Further, the IC50 in assay [4] (S. aureus DnaE IC50) was about 6.51 nM; in assay [6] (setting [7]), over 145 µM.
Take `CO[C@H]1C[C@H]2C=C[C@H]3[C@H]4O[C@]2(/C(C)=C/[C@@H](C)[C@@H]([C@@H](C)OC(=O)OC(C)C)OC1=O)[C@@H]3[C@H](O)[C@@H](C)[C@H]4OC(=O)c1ccc[nH]1` [Example 33]: the MIC in assay [1] was 8 µg/mL (≈ 13.3 µM); in assay [2] it was over 64 µg/mL; in assay [3], over 128 µg/mL; in assay [5], 32 µg/mL. The results for the IC50 in assay [4] (S. aureus DnaE IC50) and in assay [6] (setting [7]) were 34.9 nM and 58.2 µM, respectively.
On to `CO[C@H]1C[C@H]2C=C[C@H]3[C@H]4O[C@]2(/C(C)=C/[C@@H](C)[C@@H]([C@@H](C)OC(=O)OCC(CO)CO)OC1=O)[C@@H]3[C@H](O)[C@@H](C)[C@H]4OC(=O)c1ccc[nH]1` [Example 36], for which the MIC in assay [1] is over 128 µg/mL; in assay [2] it was 2 µg/mL (≈ 3.09 µM); in assay [3], 64 µg/mL (≈ 98.8 µM); in assay [5], 2 µg/mL. The IC50 is under 9.26 nM in assay [4] (S. aureus DnaE IC50) and 17 µM in assay [6] (setting [7]).
`CO[C@H]1C[C@H]2CC[C@H]3[C@H]4O[C@]2(/C(C)=C/[C@@H](C)[C@@H]([C@@H](C)O)OC1=O)[C@@H]3[C@H](O)[C@@H](C)[C@H]4OC(=O)c1ccc[nH]1` [Example 37, (3R,4S,7S,8aR,10aR,11R,12R,13R,14R,14aS,14bS,E)-14-hydroxy-4-((R)-1-hydroxyethyl)-7-methoxy-1,3,13-trimethyl-6-oxo-3,4,6,7,8,8a,9,10,10a,11,12,13,14,14a-tetradecahydro-11,14b-epoxynaphtho[2,1-e]oxecin-12-yl 1H-pyrrole-2-carboxylate]: the MIC in assay [1] is over 128 µg/mL; in assay [2], over 8 µg/mL; in assay [3], 128 µg/mL (≈ 247 µM); in assay [5] it was over 8 µg/mL. In addition, the IC50 in assay [4] (S. aureus DnaE IC50) was under 96.6 nM; in assay [6] (E. coli DnaE IC50) it was over 193 µM.
As to `CO[C@H]1CC2C=C[C@H]3[C@H]4O[C@]2(/C(C)=C/[C@@H](C)[C@@H]([C@@H](C)O)OC1=O)[C@@H]3[C@H](OC(N)=O)[C@@H](C)[C@H]4OC(=O)c1ccc[nH]1` (stereo partly drawn) [Example 38, (3R,4S,7S,10aR,11R,12R,13R,14R,14aS,14bS,E)-14-(carbamoyloxy)-4-((R)-1-hydroxyethyl)-7-methoxy-1,3,13-trimethyl-6-oxo-3,4,6,7,8,8a,10a,11,12,13,14,14 a-dodecahydro-11,14b-epoxynaphtho[2,1-e]oxecin-12-yl 1H-pyrrole-2-carboxylate], the MIC in assay [1] is 128 µg/mL (≈ 229 µM); in assay [2] it was 16 µg/mL (≈ 28.6 µM); in assay [3] it was over 128 µg/mL; in assay [5] it was 32 µg/mL. Moreover, the IC50 is 39.4 nM in assay [4] (S. aureus DnaE IC50) and about 197 µM in assay [6] (setting [7]).
`CO[C@H]1CC2C=C[C@H]3[C@H]4O[C@]2(/C(C)=C/[C@@H](C)[C@@H]([C@@H](C)O)OC1=O)[C@@H]3[C@H](OC(=O)NC1CC1)[C@@H](C)[C@H]4OC(=O)c1ccc[nH]1` (stereo partly drawn) [Example 39]: the MIC in assay [1], in assay [2], in assay [3] and in assay [5] was over 128 µg/mL each time. Further, the IC50 is 15000 nM in assay [4] (setting [8]) and over 167 µM in assay [6] (E. coli DnaE IC50).
